What was measured:
LNCaP cells = assay: In vitro LNCaP cell proliferation inhibition test (CellTiter-Glo); format: cell-based; conditions: for Maximum Inhibition (%) / IC50: 6 days; for IC50: Homo sapiens, read-out: Anti-proliferative activity IC50
Procedure: The cells were then digested with trypsin and counted using an automated cell counter to determine cell density. The cell suspension was diluted to the desired density in growth medium. Subsequently, 100 μL of the cell suspension was seeded into 96-well plates and incubated at 37° C. with 5% CO2 for 24 hours. 10 μL of drug solution (including 3-fold serial dilutions of compounds or DMSO) was added to each well, and the plates were incubated at 37° C. with 5% CO2 for 6 days. Prior to measurement, the assay plates were equilibrated to room temperature. 40 μL of CellTiter-Glo® reagent was added to each well. The plates were mixed on an orbital shaker for 2 minutes to induce cell lysis. After incubation at room temperature for 60 minutes to stabilize the luminescence signal, the plates were read on an Envision plate reader.

AR = molecular target: T1, AR (Homo sapiens, UniProt P10275, T878A); assay: In vitro AR degradation activity test in LNCaP cells (ELISA, OD450); format: cell-based; conditions: for DC50: LNCaP cells, 24 hours
T1 construct: endogenous in cells; host or cells: LNCaP
T1 sequence (P10275 1-920 T878A): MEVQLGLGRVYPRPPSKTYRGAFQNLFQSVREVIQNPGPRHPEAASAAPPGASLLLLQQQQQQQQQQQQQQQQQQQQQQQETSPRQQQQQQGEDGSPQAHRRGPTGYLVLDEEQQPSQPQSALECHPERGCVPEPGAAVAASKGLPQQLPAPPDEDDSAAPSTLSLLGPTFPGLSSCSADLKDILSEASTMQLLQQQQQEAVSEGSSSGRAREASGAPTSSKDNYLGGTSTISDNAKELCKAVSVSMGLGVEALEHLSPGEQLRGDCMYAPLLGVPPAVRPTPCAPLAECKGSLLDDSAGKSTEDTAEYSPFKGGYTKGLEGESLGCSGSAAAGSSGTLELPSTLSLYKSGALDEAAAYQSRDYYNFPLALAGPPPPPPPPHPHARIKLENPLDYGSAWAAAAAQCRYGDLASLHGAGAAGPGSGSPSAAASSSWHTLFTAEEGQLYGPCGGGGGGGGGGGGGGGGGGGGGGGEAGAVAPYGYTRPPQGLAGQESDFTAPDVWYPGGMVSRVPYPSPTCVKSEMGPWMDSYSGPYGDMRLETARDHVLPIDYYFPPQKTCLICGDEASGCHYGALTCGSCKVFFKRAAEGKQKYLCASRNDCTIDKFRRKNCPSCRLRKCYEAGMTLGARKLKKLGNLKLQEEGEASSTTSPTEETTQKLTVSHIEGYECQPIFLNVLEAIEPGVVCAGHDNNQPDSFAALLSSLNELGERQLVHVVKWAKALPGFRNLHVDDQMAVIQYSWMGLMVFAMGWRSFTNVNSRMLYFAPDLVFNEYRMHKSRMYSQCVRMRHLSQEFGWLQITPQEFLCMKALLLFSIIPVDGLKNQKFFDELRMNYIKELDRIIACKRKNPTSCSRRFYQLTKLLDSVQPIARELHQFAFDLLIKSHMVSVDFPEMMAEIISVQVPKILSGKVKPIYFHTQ
Procedure: The cells were then digested with trypsin and counted using an automated cell counter. The cell suspension was diluted to the desired density in growth medium. The cell suspension was then seeded into 96-well plates at 100 μL per well, and the plates were incubated at 37° C. with 5% CO2 for 24 hours. The compounds were then diluted 200-fold to the final concentration with DMSO or 3-fold to the final concentration with culture medium. 50 μL of compound solution was transferred to the 96-well plate and incubated at 37° C. for 24 hours. After 24 hours of incubation, the cell plate was washed 3 times with DPBS, 100 μL of 1× lysis buffer was added to each well, and placed on ice for 30 minutes. The supernatant was collected. The protein in the cell lysate samples was quantified and then diluted to the required concentration. 100 μL of cell lysate sample was added to the appropriate wells, sealed with tape and pressed firmly on top of the wells, and the plate was incubated at 37° C. for 2 hours. The plate contents were then discarded, and washed 4 times with 1× wash buffer, 200 μL per well each time. 100 μL of reconstituted detection antibody was then added, the plate was sealed with tape and incubated at 37° C. for 1 hour. The aspiration/wash step was then repeated, 100 μL of reconstituted HRP-Linked secondary antibody was added to each well, the plate was sealed with tape and incubated at 37° C. for 30 minutes. The aspiration/wash step was then repeated, 100 μL of substrate solution was added to each well and incubated at 37° C. for 10 minutes, and finally 100 μL of stop solution was added to each well. The plate was gently tapped to ensure thorough mixing, and the OD450 nm was recorded.
Degradation rate (%)=(OD450_max−OD450_sample)/(OD450_max−OD450_min)×100,plotted using GraphPad Prism 5 software, and IC50 is calculated using SPSS software.

[1] = In vivo pharmacokinetics in rats after oral gavage; conditions: male SD rats, PO 10 mg/kg
Procedure: Male SD rats were randomly divided into 6 groups, 3 rats per group. The rats were fasted but not water-deprived for 12-14 h one day before dosing. The test samples were then dissolved in a solvent of 5% DMSO+30% PEG400+65% (0.5% MC) and administered by gavage at 10 mg/kg. Food was provided 4 h after dosing. Blood samples (0.10 mL) were collected via the orbital sinus at 0, 15, 30 min, 1, 2, 4, 6, 8, and 24 h, with EDTA-K2 as anticoagulant. Blood samples were placed on ice after collection and centrifuged to separate plasma within 30 minutes (centrifugation conditions: 5000 rpm, 10 minutes, 4° C.). 50.0 μL of plasma sample (taken from −80° C. freezer, thawed naturally at room temperature and vortexed for 30 seconds) was added to a 1.5 mL centrifuge tube, followed by addition of 500 μL internal standard solution (methanol (TEDIA, HPLC grade), acetonitrile (TEDIA, HPLC grade), formic acid (FA, ACROS ORGANICS, HPLC grade), water was laboratory-made ultrapure water (100.0 ng·mL−1)). The mixture was vortexed for 60 seconds and centrifuged for 3 minutes (centrifugal force 12000 rpm). 100 μL of the supernatant was transferred to a 96-well injection plate containing an equal volume of water, mixed by shaking, and analyzed by LC-MS/MS with an injection volume of 10 μL. The data acquisition and control system software was Analyst 1.5.1 software (Applied Biosystem). The chromatographic sample peaks were integrated automatically. The ratio of sample peak area to internal standard peak area was used as an indicator for regression with sample concentration.
The pharmacokinetic parameters of representative compounds of the present invention were tested in male SD rats after oral gavage administration at 10 mg/kg according to the above conventional method to examine the pharmacokinetic characteristics of the compounds of the present invention in rats.

For `C[C@]12CC[C@H](NC(=O)c3ccncc3)CC1=CCC1C2CC[C@]2(C)C(c3cccnc3)=CCC12` (stereo partly drawn) [Compound 2, N-((3S,10R,13S)-10,13-dimethyl-17-(pyridin-3-yl)-2,3,4,7,8,9,10,11,12,13,14,15-dodecahydro-1H-cyclopenta[a]phenanthren-3-yl)isonicotinamide], the “Maximum Inhibition (%)” value (LNCaP cells) was 93.50% and the IC50 (LNCaP cells) was 851 nM.
With `C[C@]12CC[C@H](NC(=O)c3ccnnc3)CC1=CCC1C2CC[C@]2(C)C(n3cnc(C(F)(F)F)c3)=CCC12` (stereo partly drawn) [Compound 22] the “Maximum Inhibition (%)” value (LNCaP cells) was 104.1% and the IC50 (LNCaP cells) was 819 nM.
In the case of `Cc1cn(C2=CCC3C4CC=C5C[C@@H](NC(=O)c6ccc(C#N)cc6)CC[C@]5(C)C4CC[C@]23C)cn1` (stereo partly drawn) [Compound 36, N-((3S,10R,13S)-17-(4-methyl-1H-imidazol-1-yl)-10,13-dimethyl-2,3,4,7,8,9,10,11,12,13,14,15-dodecahydro-1H-cyclopenta[a]phenanthren-3-yl)-4-cyanobenzamide], the DC50 (AR) is reported as 1370 nM, the “AR degradation activity, improvement compared to Galeterone” value (AR; ratio to Galeterone DC50) is reported as 7.6 times and the “Maximum Inhibition (%)” value (LNCaP cells) is reported as 99.38%. For the same compound, the IC50 (LNCaP cells) was 643 nM.
For `C[C@]12CC[C@H](NC(=O)c3ccnnc3)CC1=CCC1C2CC[C@]2(C)C(n3cnc(C#N)c3)=CCC12` (stereo partly drawn) [Compound 25], the “Maximum Inhibition (%)” value (LNCaP cells) was 89.52% and the IC50 (LNCaP cells) was 471 nM.
Work on `C[C@]12CC[C@H](NC(=O)c3cccnc3)CC1=CCC1C2CC[C@]2(C)C(c3cccnc3)=CCC12` (stereo partly drawn) [Compound 3, N-((3S,10R,13S)-10,13-dimethyl-17-(pyridin-3-yl)-2,3,4,7,8,9,10,11,12,13,14,15-dodecahydro-1H-cyclopenta[a]phenanthren-3-yl)nicotinamide] yielded a DC50 (AR) of 2870 nM.
In the case of `Cc1cn(C2=CCC3C4CC=C5C[C@@H](NC(=O)c6cccnc6)CC[C@]5(C)C4CC[C@]23C)cn1` (stereo partly drawn) [Compound 12, N-((3S,10R,13S)-10,13-dimethyl-17-(4-methyl-1H-imidazol-1-yl)-2,3,4,7,8,9,10,11,12,13,14,15-dodecahydro-1H-cyclopenta[a]phenanthren-3-yl)nicotinamide], the DC50 (AR) is reported as 3580 nM, the “Maximum Inhibition (%)” value (LNCaP cells) is reported as 102.9% and the IC50 (LNCaP cells) is reported as 933 nM.
In the case of `CCc1cn(C2=CCC3C4CC=C5C[C@@H](NC(=O)c6ccncc6)CC[C@]5(C)C4CC[C@]23C)cn1` (stereo partly drawn) [Compound 18, N-((3S,10R,13S)-17-(4-ethyl-1H-imidazol-1-yl)-10,13-dimethyl-2,3,4,7,8,9,10,11,12,13,14,15-dodecahydro-1H-cyclopenta[a]phenanthren-3-yl)isonicotinamide], the DC50 (AR) is reported as 3210 nM, the “Maximum Inhibition (%)” value (LNCaP cells) is reported as 98.53% and the IC50 (LNCaP cells) is reported as 356 nM. For the same compound, the “Anti-proliferative activity, fold improvement compared to abiraterone” value (LNCaP cells; ratio to abiraterone IC50) was 7.9 fold.
In the case of `C[C@]12CC[C@H](NC(=O)c3ccncc3)CC1=CCC1C2CC[C@]2(C)C(n3cnc4ccccc43)=CCC12` (stereo partly drawn) [Compound 8, N-((3S,10R,13S)-17-(1H-benzo[d]imidazol-1-yl)-10,13-dimethyl-2,3,4,7,8,9,10,11,12,13,14,15-dodecahydro-1H-cyclopenta[a]phenanthren-3-yl)isonicotinamide], the DC50 (AR) is reported as 3760 nM, the “Maximum Inhibition (%)” value (LNCaP cells) is reported as 104.5% and the IC50 (LNCaP cells) is reported as 763 nM.
Compound `C[C@]12CC[C@H](O)CC1=CC[C@@H]1[C@@H]2CC[C@]2(C)C(c3cccnc3)=CC[C@@H]12` [Abiraterone, abiraterone, reference compound] has a Kel [1] of 0.298 h⁻¹, an MRTPO [1] of 4.60 h and an AUC(0-inf) ([1]; rat, plasma) of 198 ng·h/mL. It also gave an AUC(0-t) ([1]; rat, plasma) of 163 ng·h/mL, a half-life ([1]; rat, plasma) of 2.37 h and a Cmax ([1]; rat, plasma, read-out: Cmax) of 48.4 ng/mL. The tmax ([1]; rat, plasma, read-out: tmax) was 1.83 h, the “Maximum Inhibition (%)” value (LNCaP cells) was 84.06% and the IC50 (LNCaP cells) was 2800 nM.
In the case of `CCc1cn(C2=CCC3C4CC=C5C[C@@H](NC(=O)c6ccnnc6)CC[C@]5(C)C4CC[C@]23C)cn1` (stereo partly drawn) [Compound 19], the “Maximum Inhibition (%)” value (LNCaP cells) is reported as 97.68% and the IC50 (LNCaP cells) is reported as 427 nM.
In the case of `C[C@]12CC[C@H](NC(=O)c3ccnnc3)CC1=CCC1C2CC[C@]2(C)C(n3cnc4ccccc43)=CCC12` (stereo partly drawn) [Compound 9], the “Maximum Inhibition (%)” value (LNCaP cells) is reported as 95.87% and the IC50 (LNCaP cells) is reported as 765 nM.
In the case of `CC(C)c1cn(C2=CCC3C4CC=C5C[C@@H](NC(=O)c6ccncc6)CC[C@]5(C)C4CC[C@]23C)cn1` (stereo partly drawn) [Compound 20, N-((3S,10R,13S)-17-(4-isopropyl-1H-imidazol-1-yl)-10,13-dimethyl-2,3,4,7,8,9,10,11,12,13,14,15-dodecahydro-1H-cyclopenta[a]phenanthren-3-yl)isonicotinamide], the “Maximum Inhibition (%)” value (LNCaP cells) is reported as 94.04% and the IC50 (LNCaP cells) is reported as 734 nM.
For `Cc1cn(C2=CCC3C4CC=C5C[C@@H](NC(=O)c6ccncc6F)CC[C@]5(C)C4CC[C@]23C)cn1` (stereo partly drawn) [Compound 15, N-((3S,10R,13S)-10,13-dimethyl-17-(4-methyl-1H-imidazol-1-yl)-2,3,4,7,8,9,10,11,12,13,14,15-dodecahydro-1H-cyclopenta[a]phenanthren-3-yl)-3-fluoroisonicotinamide], the “Maximum Inhibition (%)” value (LNCaP cells) was 102.6% and the IC50 (LNCaP cells) was 752 nM.
In the case of `C[C@]12CC[C@H](NC(=O)c3ccnnc3)CC1=CCC1C2CC[C@]2(C)C(c3cncnc3)=CCC12` (stereo partly drawn) [Compound 10], the DC50 (AR) is reported as 4250 nM, the “Maximum Inhibition (%)” value (LNCaP cells) is reported as 99.74% and the IC50 (LNCaP cells) is reported as 820 nM.
In the case of `COc1cn(C2=CCC3C4CC=C5C[C@@H](NC(=O)c6ccnnc6)CC[C@]5(C)C4CC[C@]23C)cn1` (stereo partly drawn) [Compound 24], the DC50 (AR) is reported as 3880 nM, the “Maximum Inhibition (%)” value (LNCaP cells) is reported as 98.02% and the IC50 (LNCaP cells) is reported as 475 nM. The “Anti-tumor activity and efficacy compared to enzalutamide” value (LNCaP cells; in words) was “comparable anti-tumor activity but significantly superior anti-tumor efficacy compared to enzalutamide”.
